According to ChEMBL document CHEMBL1148995, “Antitumor agents from bohemic acid complex, VI. Schaunardimycin” (J Nat Prod, 1984):

Tests used:
Mus musculus [1] = assay: Toxicity in mouse L1210 cells implanted CDF1 mouse assessed as survivors on day 5 at 6.4 mg/kg, ip single dose on day 1; assay type: organism-based; set-up: dose 6.4 mg/kg, route intraperitoneal; settings: in vivo
Mus musculus [2] = assay: Toxicity in mouse L1210 cells implanted CDF1 mouse assessed as survivors on day 5 at 12.8 mg/kg, ip single dose on day 1; assay type: organism-based; set-up: dose 12.8 mg/kg, route intraperitoneal; settings: in vivo
Mus musculus [3] = assay: Toxicity in mouse L1210 cells implanted CDF1 mouse assessed as average weight gain at 0.8 mg/kg, ip qd for 1 to 5 days; assay type: organism-based; set-up: dose 0.8 mg/kg, route intraperitoneal; settings: in vivo
Mus musculus [4] = assay: Toxicity in mouse L1210 cells implanted CDF1 mouse assessed as survivors on day 5 at 0.2 mg/kg, ip qd for 1 to 5 days; assay type: organism-based; set-up: dose 0.2 mg/kg, route intraperitoneal; settings: in vivo
L1210 [5] = assay: Antitumor activity against mouse L1210 cells implanted in CDF1 mouse at 3.2 mg/kg, ip single dose on day 1 relative to control; assay type: functional; settings: route intraperitoneal
L1210 [6] = assay: Antitumor activity against mouse L1210 cells implanted in CDF1 mouse at 1.6 mg/kg, ip qd for 1 to 5 days relative to control; assay type: functional; settings: route intraperitoneal
L1210 [7] = assay: Antitumor activity against mouse L1210 cells implanted in CDF1 mouse at 6.4 mg/kg, ip qd for 1 to 5 days relative to control; assay type: functional; settings: route intraperitoneal
Mus musculus [8] = assay: Toxicity in mouse L1210 cells implanted CDF1 mouse assessed as average weight gain at 1.6 mg/kg, ip qd for 1 to 5 days; assay type: organism-based; set-up: dose 1.6 mg/kg, route intraperitoneal; settings: in vivo
L1210 [9] = assay: Antitumor activity against mouse L1210 cells implanted in CDF1 mouse at 0.4 mg/kg, ip qd for 1 to 5 days relative to control; assay type: functional; settings: route intraperitoneal
Mus musculus [10] = assay: Toxicity in mouse L1210 cells implanted CDF1 mouse assessed as survivors on day 5 at 3.2 mg/kg, ip qd for 1 to 5 days; assay type: organism-based; set-up: dose 3.2 mg/kg, route intraperitoneal; settings: in vivo
Mus musculus [11] = assay: Toxicity in mouse L1210 cells implanted CDF1 mouse assessed as average weight gain at 0.2 mg/kg, ip single dose on day 1; assay type: organism-based; set-up: dose 0.2 mg/kg, route intraperitoneal; settings: in vivo
L1210 [12] = assay: Antitumor activity against mouse L1210 cells implanted in CDF1 mouse at 0.2 mg/kg, ip single dose on day 1 relative to control; assay type: functional; settings: route intraperitoneal
L1210 [13] = assay: Antitumor activity against mouse L1210 cells implanted in CDF1 mouse at 0.8 mg/kg, ip single dose on day 1 relative to control; assay type: functional; settings: route intraperitoneal
Mus musculus [14] = assay: Toxicity in mouse L1210 cells implanted CDF1 mouse assessed as average weight gain at 0.4 mg/kg, ip single dose on day 1; assay type: organism-based; set-up: dose 0.4 mg/kg, route intraperitoneal; settings: in vivo
L1210 [15] = assay: Antitumor activity against mouse L1210 cells implanted in CDF1 mouse at 1.6 mg/kg, ip single dose on day 1 relative to control; assay type: functional; settings: route intraperitoneal
Mus musculus [16] = assay: Toxicity in mouse L1210 cells implanted CDF1 mouse assessed as survivors on day 5 at 0.8 mg/kg, ip single dose on day 1; assay type: organism-based; set-up: dose 0.8 mg/kg, route intraperitoneal; settings: in vivo
L1210 [17] = assay: Antitumor activity against mouse L1210 cells implanted in CDF1 mouse at 0.8 mg/kg, ip qd for 1 to 5 days relative to control; assay type: functional; settings: route intraperitoneal
L1210 [18] = assay: Antitumor activity against mouse L1210 cells implanted in CDF1 mouse at 12.8 mg/kg, ip single dose on day 1 relative to control; assay type: functional; settings: route intraperitoneal
Mus musculus [19] = assay: Toxicity in mouse L1210 cells implanted CDF1 mouse assessed as survivors on day 5 at 0.8 mg/kg, ip qd for 1 to 5 days; assay type: organism-based; set-up: dose 0.8 mg/kg, route intraperitoneal; settings: in vivo
Mus musculus [20] = assay: Toxicity in mouse L1210 cells implanted CDF1 mouse assessed as average weight gain at 3.2 mg/kg, ip qd for 1 to 5 days; assay type: organism-based; set-up: dose 3.2 mg/kg, route intraperitoneal; settings: in vivo
L1210 [21] = assay: Antitumor activity against mouse L1210 cells implanted in CDF1 mouse assessed as median survival time at 6.4 mg/kg, ip single dose on day 1; assay type: functional; settings: route intraperitoneal
L1210 [22] = assay: Antitumor activity against mouse L1210 cells implanted in CDF1 mouse assessed as median survival time at 1.6 mg/kg, ip single dose on day 1; assay type: functional; settings: route intraperitoneal
Mus musculus [23] = assay: Toxicity in mouse L1210 cells implanted CDF1 mouse assessed as survivors on day 5 at 0.4 mg/kg, ip qd for 1 to 5 days; assay type: organism-based; set-up: dose 0.4 mg/kg, route intraperitoneal; settings: in vivo
L1210 [24] = assay: Antitumor activity against mouse L1210 cells implanted in CDF1 mouse assessed as median survival time at 0.8 mg/kg, ip single dose on day 1; assay type: functional; settings: route intraperitoneal
Mus musculus [25] = assay: Toxicity in mouse L1210 cells implanted CDF1 mouse assessed as average weight gain at 6.4 mg/kg, ip single dose on day 1; assay type: organism-based; set-up: dose 6.4 mg/kg, route intraperitoneal; settings: in vivo
L1210 [26] = assay: Antitumor activity against mouse L1210 cells implanted in CDF1 mouse assessed as median survival time at 3.2 mg/kg, ip qd for 1 to 5 days; assay type: functional; settings: route intraperitoneal
L1210 [27] = assay: Antitumor activity against mouse L1210 cells implanted in CDF1 mouse assessed as median survival time at 1.6 mg/kg, ip qd for 1 to 5 days; assay type: functional; settings: route intraperitoneal
Mus musculus [28] = assay: Toxicity in mouse L1210 cells implanted CDF1 mouse assessed as median survival time at 25.6 mg/kg, ip single dose on day 1; assay type: organism-based; set-up: dose 25.6 mg/kg, route intraperitoneal; settings: in vivo
L1210 [29] = assay: Antitumor activity against mouse L1210 cells implanted in CDF1 mouse at 6.4 mg/kg, ip single dose on day 1 relative to control; assay type: functional; settings: route intraperitoneal
L1210 [30] = assay: Antitumor activity against mouse L1210 cells implanted in CDF1 mouse at 0.2 mg/kg, ip qd for 1 to 5 days relative to control; assay type: functional; settings: route intraperitoneal
Mus musculus [31] = assay: Toxicity in mouse L1210 cells implanted CDF1 mouse assessed as average weight gain at 0.8 mg/kg, ip single dose on day 1; assay type: organism-based; set-up: dose 0.8 mg/kg, route intraperitoneal; settings: in vivo
Mus musculus [32] = assay: Toxicity in mouse L1210 cells implanted CDF1 mouse assessed as average weight gain at 1.6 mg/kg, ip single dose on day 1; assay type: organism-based; set-up: dose 1.6 mg/kg, route intraperitoneal; settings: in vivo
Mus musculus [33] = assay: Toxicity in mouse L1210 cells implanted CDF1 mouse assessed as survivors on day 5 at 1.6 mg/kg, ip single dose on day 1; assay type: organism-based; set-up: dose 1.6 mg/kg, route intraperitoneal; settings: in vivo
L1210 [34] = assay: Antitumor activity against mouse L1210 cells implanted in CDF1 mouse assessed as median survival time at 0.4 mg/kg, ip qd for 1 to 5 days; assay type: functional; settings: route intraperitoneal
Mus musculus [35] = assay: Toxicity in mouse L1210 cells implanted CDF1 mouse assessed as survivors on day 5 at 1.6 mg/kg, ip qd for 1 to 5 days; assay type: organism-based; set-up: dose 1.6 mg/kg, route intraperitoneal; settings: in vivo
L1210 [36] = assay: Antitumor activity against mouse L1210 cells implanted in CDF1 mouse assessed as median survival time at 0.2 mg/kg, ip qd for 1 to 5 days; assay type: functional; settings: route intraperitoneal
Mus musculus [37] = assay: Toxicity in mouse L1210 cells implanted CDF1 mouse assessed as average weight gain at 3.2 mg/kg, ip single dose on day 1; assay type: organism-based; set-up: dose 3.2 mg/kg, route intraperitoneal; settings: in vivo
Mus musculus [38] = assay: Toxicity in mouse L1210 cells implanted CDF1 mouse assessed as average weight gain at 6.4 mg/kg, ip qd for 1 to 5 days; assay type: organism-based; set-up: dose 6.4 mg/kg, route intraperitoneal; settings: in vivo
L1210 [39] = assay: Antitumor activity against mouse L1210 cells implanted in CDF1 mouse assessed as median survival time at 3.2 mg/kg, ip single dose on day 1; assay type: functional; settings: route intraperitoneal
L1210 [40] = assay: Antitumor activity against mouse L1210 cells implanted in CDF1 mouse at 3.2 mg/kg, ip qd for 1 to 5 days relative to control; assay type: functional; settings: route intraperitoneal
L1210 [41] = assay: Antitumor activity against mouse L1210 cells implanted in CDF1 mouse assessed as median survival time at 0.4 mg/kg, ip single dose on day 1; assay type: functional; settings: route intraperitoneal
L1210 [42] = assay: Antitumor activity against mouse L1210 cells implanted in CDF1 mouse assessed as median survival time at 6.4 mg/kg, ip qd for 1 to 5 days; assay type: functional; settings: route intraperitoneal
Mus musculus [43] = assay: Toxicity in mouse L1210 cells implanted CDF1 mouse assessed as survivors on day 5 at 0.4 mg/kg, ip single dose on day 1; assay type: organism-based; set-up: dose 0.4 mg/kg, route intraperitoneal; settings: in vivo
Mus musculus [44] = assay: Toxicity in mouse L1210 cells implanted CDF1 mouse assessed as average weight gain at 0.2 mg/kg, ip qd for 1 to 5 days; assay type: organism-based; set-up: dose 0.2 mg/kg, route intraperitoneal; settings: in vivo
Mus musculus [45] = assay: Toxicity in mouse L1210 cells implanted CDF1 mouse assessed as average weight gain at 0.4 mg/kg, ip qd for 1 to 5 days; assay type: organism-based; set-up: dose 0.4 mg/kg, route intraperitoneal; settings: in vivo
L1210 [46] = assay: Antitumor activity against mouse L1210 cells implanted in CDF1 mouse assessed as median survival time at 0.8 mg/kg, ip qd for 1 to 5 days; assay type: functional; settings: route intraperitoneal
L1210 [47] = assay: Antitumor activity against mouse L1210 cells implanted in CDF1 mouse at 0.4 mg/kg, ip single dose on day 1 relative to control; assay type: functional; settings: route intraperitoneal
L1210 [48] = assay: Antitumor activity against mouse L1210 cells implanted in CDF1 mouse assessed as median survival time at 12.8 mg/kg, ip single dose on day 1; assay type: functional; settings: route intraperitoneal
L1210 [49] = assay: Antitumor activity against mouse L1210 cells implanted in CDF1 mouse assessed as median survival time at 0.2 mg/kg, ip single dose on day 1; assay type: functional; settings: route intraperitoneal
Mus musculus [50] = assay: Toxicity in mouse L1210 cells implanted CDF1 mouse assessed as survivors on day 5 at 3.2 mg/kg, ip single dose on day 1; assay type: organism-based; set-up: dose 3.2 mg/kg, route intraperitoneal; settings: in vivo
Mus musculus [51] = assay: Toxicity in mouse L1210 cells implanted CDF1 mouse assessed as average weight gain at 12.8 mg/kg, ip single dose on day 1; assay type: organism-based; set-up: dose 12.8 mg/kg, route intraperitoneal; settings: in vivo

Compound: CC[C@@]1(O)C[C@H](O[C@H]2C[C@H](N(C)C)[C@H](O[C@H]3C[C@H](O)[C@H](O)[C@H](C)O3)[C@H](C)O2)c2c(cc3c(c2O)C(=O)c2c(O)ccc(O)c2C3=O)[C@H]1C(=O)OC [MUSETTAMYCIN]
- Activity (Mus musculus [1]): Active
- Activity (Mus musculus [2]): Active
- weight gain (Mus musculus [3]): 1.4 g
- Activity (Mus musculus [4]): Active
- T/C (L1210 [5]): 133%
- T/C (L1210 [6]): 158%
- T/C (L1210 [7]): 100%
- weight gain (Mus musculus [8]): 0.3 g
- T/C (L1210 [9]): 117%
- Activity (Mus musculus [10]): Active
- weight gain (Mus musculus [11]): 2.7 g
- T/C (L1210 [12]): 100%
- T/C (L1210 [13]): 117%
- weight gain (Mus musculus [14]): 2.7 g
- T/C (L1210 [15]): 133%
- Activity (Mus musculus [16]): Active
- T/C (L1210 [17]): 133%
- T/C (L1210 [18]): 167%
- Activity (Mus musculus [19]): Active
- Activity (Mus musculus [20]): -1.2 g
- MST (L1210 [21]): 9.5 days
- MST (L1210 [22]): 8 days
- Activity (Mus musculus [23]): Active
- MST (L1210 [24]): 7 days
- Activity (Mus musculus [25]): 0.3 g
- MST (L1210 [26]): 10 days
- MST (L1210 [27]): 9.5 days
- Activity (Mus musculus [28]): Toxic
- T/C (L1210 [29]): 158%
- T/C (L1210 [30]): 117%
- weight gain (Mus musculus [31]): 2.6 g
- weight gain (Mus musculus [32]): 0.7 g
- Activity (Mus musculus [33]): Active
- MST (L1210 [34]): 7 days
- Activity (Mus musculus [35]): Active
- MST (L1210 [36]): 6.5 days
- Activity (Mus musculus [37]): 0.8 g
- Activity (Mus musculus [38]): -1.9 g
- MST (L1210 [39]): 8 days
- T/C (L1210 [40]): 167%
- MST (L1210 [41]): 6.5 days
- MST (L1210 [42]): 6 days
- Activity (Mus musculus [43]): Active
- weight gain (Mus musculus [44]): 2.8 g
- weight gain (Mus musculus [45]): 2.3 g
- MST (L1210 [46]): 8 days
- T/C (L1210 [47]): 108%
- MST (L1210 [48]): 10 days
- MST (L1210 [49]): 6 days
- Activity (Mus musculus [50]): Active
- Activity (Mus musculus [51]): -2.3 g
